# Results from PubChem BioAssay (NCI).
# “And” between values parts separate entries of the source, which are not always exact repeats. Equal values may be shown once.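 Exposure lasted 48 hours, with cells grown in 96-well plates and compounds tested at five concentrations. GI50 = concentration required for 50% inhibition of growth. TGI: concentration producing complete growth inhibition.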
# Assays:
# Experiment in all cases: NCI tumour cell line growth inhibition, 48 h
# SN12K1 renal = system: SN12K1 renal
# MDA-N = system: MDA-N
# BT-549 breast = system: BT-549 breast
# T-47D breast = system: T-47D breast
# MDA-MB-231 breast = system: MDA-MB-231 breast
# PC-3 prostate = system: PC-3 prostate
# HS 578T breast = system: HS 578T breast
# MCF7 breast = system: MCF7 breast
# SW-620 colon = system: SW-620 colon
# LXFL 529 NSCLC = system: LXFL 529 NSCLC
# NCI/ADR-RES ovarian = system: NCI/ADR-RES ovarian
# P388/ADR leukemia = system: P388/ADR leukemia
# MDA-MB-435 = system: MDA-MB-435
# P388 leukemia = system: P388 leukemia
# DU-145 prostate = system: DU-145 prostate
# KM20L2 colon = system: KM20L2 colon
# XF 498 CNS = system: XF 498 CNS
# HOP-62 NSCLC = system: HOP-62 NSCLC
# U251 CNS = system: U251 CNS
# SN12C renal = system: SN12C renal
# MOLT-4 leukemia = system: MOLT-4 leukemia
# RXF 393 renal = system: RXF 393 renal
# EKVX NSCLC = system: EKVX NSCLC
# M19-MEL melanoma = system: M19-MEL melanoma
# SF-268 CNS = system: SF-268 CNS
# SK-OV-3 ovarian = system: SK-OV-3 ovarian
# HOP-18 NSCLC = system: HOP-18 NSCLC
# SF-295 CNS = system: SF-295 CNS
# LOX IMVI melanoma = system: LOX IMVI melanoma
# HCC-2998 colon = system: HCC-2998 colon
# MALME-3M melanoma = system: MALME-3M melanoma
# SK-MEL-28 melanoma = system: SK-MEL-28 melanoma
# SK-MEL-2 melanoma = system: SK-MEL-2 melanoma
# HCT-15 colon = system: HCT-15 colon
# NCI-H23 lung = system: NCI-H23 lung
# K-562 leukemia = system: K-562 leukemia
# RPMI-8226 leukemia = system: RPMI-8226 leukemia
# IGROV1 ovarian = system: IGROV1 ovarian
# NCI-H522 lung = system: NCI-H522 lung
# DMS 273 small cell lung = system: DMS 273 small cell lung
# RXF-631 renal = system: RXF-631 renal
# SR leukemia = system: SR leukemia
# KM12 colon = system: KM12 colon
# SNB-19 CNS = system: SNB-19 CNS
# A549 NSCLC = system: A549 NSCLC
# SK-MEL-5 melanoma = system: SK-MEL-5 melanoma
# COLO 205 colon = system: COLO 205 colon
# CAKI-1 renal = system: CAKI-1 renal
# UO-31 renal = system: UO-31 renal
# SNB-78 CNS = system: SNB-78 CNS
# ACHN renal = system: ACHN renal
# OVCAR-3 ovarian = system: OVCAR-3 ovarian
# NCI-H226 lung = system: NCI-H226 lung
# SF-539 CNS = system: SF-539 CNS
# OVCAR-4 ovarian = system: OVCAR-4 ovarian
# OVCAR-8 ovarian = system: OVCAR-8 ovarian
# TK-10 renal = system: TK-10 renal
# CCRF-CEM leukemia = system: CCRF-CEM leukemia
# OVCAR-5 ovarian = system: OVCAR-5 ovarian
# UACC-62 melanoma = system: UACC-62 melanoma
# HOP-92 NSCLC = system: HOP-92 NSCLC
# HCT-116 colon = system: HCT-116 colon
# M14 melanoma = system: M14 melanoma
# NCI-H460 lung = system: NCI-H460 lung
# DLD-1 colon = system: DLD-1 colon
# SNB-75 CNS = system: SNB-75 CNS
# 786-0 renal = system: 786-0 renal
# A498 renal = system: A498 renal
# UACC-257 melanoma = system: UACC-257 melanoma
# HL-60(TB) leukemia = system: HL-60(TB) leukemia
compound,measurement,setting,value
COc1cccc2c1C(=O)c1c(O)c3c(c(O)c1C2=O)C[C@@](O)(C(C)=O)C[C@@H]3OC1CC(N(Cc2ccccc2)Cc2ccccc2)C(O)C(C)O1 (some centres not stated),TGI,SN12K1 renal,> 46.9 µM
same,TGI,MDA-N,> 23.2 µM
same,TGI,BT-549 breast,> 50 µM
same,TGI,T-47D breast,> 28.1 µM
same,TGI,MDA-MB-231 breast,> 28.1 µM
same,TGI,PC-3 prostate,> 28.1 µM
same,TGI,HS 578T breast,> 50 µM
same,TGI,MCF7 breast,> 36 µM
same,GI50,SW-620 colon,< 0.01 µM and 0.0869 µM
same,GI50,LXFL 529 NSCLC,< 0.01 µM
same,TGI,NCI/ADR-RES ovarian,> 37.5 µM
same,TGI,P388/ADR leukemia,> 50 µM
same,TGI,MDA-MB-435,14 µM
same,TGI,P388 leukemia,12.3 µM
same,TGI,DU-145 prostate,> 28.1 µM
CCCOC(=O)CCC(NC(=O)c1ccc(Nc2nc3ccccc3nc2-c2cccs2)cc1)C(=O)OCCC (configuration not stated),TGI,KM20L2 colon,> 100 µM
same,TGI,XF 498 CNS,> 100 µM
same,TGI,HOP-62 NSCLC,> 100 µM
same,TGI,U251 CNS,> 100 µM
same,TGI,SN12C renal,> 100 µM
same,TGI,MOLT-4 leukemia,> 100 µM
same,TGI,RXF 393 renal,> 100 µM
same,TGI,EKVX NSCLC,> 100 µM
same,TGI,M19-MEL melanoma,> 100 µM
same,TGI,SF-268 CNS,> 100 µM
same,TGI,SK-OV-3 ovarian,> 100 µM
same,TGI,HOP-18 NSCLC,> 100 µM
same,TGI,SF-295 CNS,> 100 µM
same,TGI,LOX IMVI melanoma,> 100 µM
same,TGI,HCC-2998 colon,> 100 µM
same,TGI,MALME-3M melanoma,88.9 µM
same,TGI,SK-MEL-28 melanoma,> 100 µM
same,TGI,SK-MEL-2 melanoma,59.9 µM
same,TGI,HCT-15 colon,> 100 µM
same,TGI,NCI-H23 lung,> 100 µM
same,TGI,K-562 leukemia,> 100 µM
same,TGI,RPMI-8226 leukemia,> 100 µM
same,TGI,IGROV1 ovarian,> 100 µM
same,TGI,NCI-H522 lung,> 100 µM
same,TGI,DMS 273 small cell lung,> 100 µM
same,TGI,RXF-631 renal,> 100 µM
same,TGI,SR leukemia,> 100 µM
same,TGI,KM12 colon,> 100 µM
same,TGI,SW-620 colon,> 100 µM
same,TGI,LXFL 529 NSCLC,> 100 µM
same,TGI,SNB-19 CNS,> 100 µM
same,TGI,A549 NSCLC,> 100 µM
same,TGI,SK-MEL-5 melanoma,> 100 µM
same,TGI,COLO 205 colon,> 100 µM
same,TGI,CAKI-1 renal,> 100 µM
same,TGI,UO-31 renal,> 100 µM
same,TGI,SNB-78 CNS,> 100 µM
same,TGI,ACHN renal,> 100 µM
same,TGI,OVCAR-3 ovarian,> 100 µM
same,TGI,NCI-H226 lung,> 100 µM
same,TGI,SF-539 CNS,> 100 µM
same,TGI,OVCAR-4 ovarian,> 100 µM
same,TGI,OVCAR-8 ovarian,> 100 µM
same,TGI,TK-10 renal,> 100 µM
same,TGI,CCRF-CEM leukemia,> 100 µM
same,TGI,OVCAR-5 ovarian,> 100 µM
same,TGI,UACC-62 melanoma,> 100 µM
same,TGI,HOP-92 NSCLC,> 100 µM
same,TGI,HCT-116 colon,> 100 µM
CC1OC(O[C@@H]2C=C3CC[C@@H]4[C@H](CC[C@]5(C)[C@@H](c6ccc(=O)oc6)CC[C@]45O)[C@@]3(C)CC2)C(O)C(O)C1O (some centres not stated),GI50,M14 melanoma,0.0885 nM
same,TGI,M14 melanoma,0.0124 µM
same,GI50,KM20L2 colon,0.00131 µM
same,TGI,SN12C renal,0.003 µM and 0.0189 µM
same,TGI,MOLT-4 leukemia,0.00127 µM
same,TGI,NCI-H460 lung,0.003 µM and 0.00049 µM
same,GI50,RXF 393 renal,0.00112 µM and 0.00894 µM
same,TGI,RXF 393 renal,0.00199 µM
same,TGI,EKVX NSCLC,0.003 µM and 0.00108 µM
same,GI50,M19-MEL melanoma,0.00173 µM
same,GI50,SN12K1 renal,0.000941 µM
same,TGI,SN12K1 renal,0.003 µM
same,TGI,SF-268 CNS,0.00353 µM
same,GI50,BT-549 breast,0.00615 µM
same,TGI,SF-295 CNS,0.003 µM and 0.000407 µM
same,GI50,DLD-1 colon,0.000621 µM
same,TGI,DLD-1 colon,0.003 µM
same,GI50,HCC-2998 colon,0.00159 µM
same,TGI,HCC-2998 colon,0.003 µM
same,GI50,T-47D breast,0.000846 µM
same,GI50,MDA-MB-231 breast,0.000383 µM
same,TGI,MDA-MB-231 breast,0.0136 µM
same,TGI,PC-3 prostate,0.00558 µM
same,TGI,MALME-3M melanoma,0.00238 µM and 0.00139 µM
same,GI50,SK-MEL-28 melanoma,0.00281 µM
same,TGI,SK-MEL-2 melanoma,0.0243 µM
same,GI50,HS 578T breast,0.00326 µM
same,TGI,HS 578T breast,0.003 µM
same,GI50,DMS 273 small cell lung,0.000892 µM
same,TGI,DMS 273 small cell lung,0.003 µM
same,TGI,SNB-75 CNS,0.003 µM
same,TGI,SR leukemia,0.00115 µM
same,TGI,NCI/ADR-RES ovarian,0.003 µM and 0.000304 µM
same,GI50,786-0 renal,0.0706 nM
same,TGI,SNB-19 CNS,0.0198 µM and 0.0319 µM
same,TGI,P388/ADR leukemia,159 µM
same,GI50,A498 renal,0.00127 µM
same,TGI,SK-MEL-5 melanoma,0.003 µM and 0.0122 µM
same,TGI,COLO 205 colon,0.0208 µM and 0.0477 µM
same,TGI,CAKI-1 renal,0.000992 µM
same,TGI,UO-31 renal,0.00205 µM
same,GI50,SNB-78 CNS,0.000596 µM
same,TGI,SNB-78 CNS,0.003 µM
same,GI50,MDA-MB-435,0.000482 µM
same,TGI,MDA-MB-435,0.013 µM
same,TGI,P388 leukemia,> 74.8 µM
same,GI50,ACHN renal,0.00478 µM
same,TGI,ACHN renal,0.003 µM and 0.000431 µM
same,TGI,OVCAR-3 ovarian,0.00262 µM and 0.000359 µM
same,TGI,UACC-257 melanoma,0.0197 µM and 0.04 µM
same,TGI,SF-539 CNS,0.000193 µM
same,TGI,OVCAR-4 ovarian,0.00224 µM and 0.00365 µM
same,TGI,TK-10 renal,0.00939 µM and 0.006 µM
same,TGI,OVCAR-5 ovarian,0.0115 µM and 0.0318 µM
same,GI50,HL-60(TB) leukemia,0.0015 µM and 0.00592 µM
same,GI50,UACC-62 melanoma,0.00216 µM
same,TGI,UACC-62 melanoma,0.003 µM
same,TGI,HOP-92 NSCLC,0.003 µM and 0.000676 µM
same,TGI,HCT-116 colon,0.0017 µM
same,TGI,DU-145 prostate,0.0153 µM
C=C1C(=O)C23C(O)CC4C(C)(C)CCC(O)C4(C)C2CC(OC(C)=O)C1[C@H]3O (some centres not stated),TGI,M14 melanoma,12.1 µM
same,TGI,KM20L2 colon,11.1 µM
same,TGI,XF 498 CNS,3.33 µM
same,TGI,HOP-62 NSCLC,28.2 µM
same,TGI,U251 CNS,22.8 µM
same,TGI,SN12C renal,12 µM
same,TGI,MOLT-4 leukemia,8.08 µM
same,TGI,NCI-H460 lung,6.65 µM
same,TGI,RXF 393 renal,5.26 µM
same,TGI,EKVX NSCLC,16.8 µM
same,TGI,M19-MEL melanoma,3.22 µM
same,TGI,SF-268 CNS,22.1 µM
same,TGI,MDA-N,20.6 µM
same,TGI,SK-OV-3 ovarian,41.4 µM
same,TGI,HOP-18 NSCLC,3.82 µM
same,TGI,SF-295 CNS,21.6 µM
same,TGI,LOX IMVI melanoma,15.8 µM
same,TGI,DLD-1 colon,4.65 µM
same,TGI,HCC-2998 colon,14.8 µM
same,TGI,MDA-MB-231 breast,14.6 µM
same,TGI,PC-3 prostate,23.7 µM
same,TGI,MALME-3M melanoma,9.42 µM
same,TGI,SK-MEL-28 melanoma,8.19 µM
same,TGI,SK-MEL-2 melanoma,5.3 µM
same,TGI,HCT-15 colon,6 µM
same,TGI,NCI-H23 lung,8.38 µM
same,TGI,HS 578T breast,53.7 µM
same,TGI,K-562 leukemia,10.1 µM
same,TGI,RPMI-8226 leukemia,> 32 µM
same,TGI,NCI-H522 lung,0.638 µM
same,TGI,DMS 273 small cell lung,3.79 µM
same,TGI,RXF-631 renal,15.7 µM
same,TGI,SNB-75 CNS,22.7 µM
same,TGI,SR leukemia,> 41.1 µM
same,TGI,KM12 colon,31.1 µM
same,TGI,SW-620 colon,2.53 µM
same,TGI,LXFL 529 NSCLC,2.41 µM
same,TGI,NCI/ADR-RES ovarian,42.9 µM
same,TGI,786-0 renal,6.82 µM
same,TGI,SNB-19 CNS,30.9 µM
same,TGI,A549 NSCLC,13.7 µM
same,TGI,A498 renal,30.9 µM
same,TGI,COLO 205 colon,5.3 µM
same,TGI,CAKI-1 renal,9.39 µM
same,TGI,UO-31 renal,29.7 µM
same,TGI,MDA-MB-435,21.4 µM
same,TGI,ACHN renal,8.94 µM
same,TGI,OVCAR-3 ovarian,19 µM
same,TGI,NCI-H226 lung,28.1 µM
same,TGI,UACC-257 melanoma,8.38 µM
same,TGI,SF-539 CNS,9.45 µM
same,TGI,OVCAR-8 ovarian,2.83 µM
same,TGI,TK-10 renal,3.72 µM
same,TGI,CCRF-CEM leukemia,2.7 µM
same,TGI,OVCAR-5 ovarian,21.5 µM
same,TGI,HL-60(TB) leukemia,3.53 µM
same,TGI,HOP-92 NSCLC,7.01 µM
same,TGI,HCT-116 colon,5.88 µM
